From the supplement of paper PMC10307832

Experiments:
Assay in all cases: relative viability (nuclei count vs DMSO), 5 days (fraction); higher = more cells survive
Cediranib + Palbociclib = compound: COc1cc2c(Oc3ccc4[nH]c(C)cc4c3F)ncnc2cc1OCCCN1CCCC1 [Cediranib] + CC(=O)c1c(C)c2cnc(Nc3ccc(N4CCNCC4)cn3)nc2n(C2CCCC2)c1=O [Palbociclib] (partner 0.5 µM)
Summary of the method: (§1)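 After 5 days of treatment, lung cancer cells in 1536-well plates were fixed and stained in a single step (final 0.05% Triton X-100, 1% formaldehyde, 1 ug/ml Hoechst) and their nuclei counted on 4× images. Treatment had been applied by pin tool the day after seeding as one drug alone or as a fixed anchor-drug dose with five library-drug doses (not always all listed) in √10 steps. Relative viability is the nuclei count of treated wells divided by that of vehicle wells, and values are medians of duplicate plates.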

Cediranib + OSI-027 = compound: COc1cc2c(Oc3ccc4[nH]c(C)cc4c3F)ncnc2cc1OCCCN1CCCC1 [Cediranib] + COc1cccc2cc(-c3nc([C@H]4CC[C@H](C(=O)O)CC4)n4ncnc(N)c34)[nH]c12 [OSI-027] (partner 0.5 µM)
Summary of the method: as §1

Decitabine + Palbociclib = compound: Nc1ncn([C@H]2C[C@H](O)[C@@H](CO)O2)c(=O)n1 [Decitabine] + CC(=O)c1c(C)c2cnc(Nc3ccc(N4CCNCC4)cn3)nc2n(C2CCCC2)c1=O [Palbociclib] (partner 0.5 µM)
Summary of the method: as §1

Decitabine + Dasatinib = compound: Nc1ncn([C@H]2C[C@H](O)[C@@H](CO)O2)c(=O)n1 [Decitabine] + Cc1nc(Nc2ncc(C(=O)Nc3c(C)cccc3Cl)s2)cc(N2CCN(CCO)CC2)n1 [Dasatinib] (partner 0.075 µM)
Summary of the method: as §1

## UMC-11
Cediranib + Palbociclib; first compound 0.04 µM
  relative viability: 0.345
Cediranib + Palbociclib; first compound 0.1265 µM
  relative viability: 0.341
Cediranib + Palbociclib; first compound 0.4 µM
  relative viability: 0.315
Cediranib + Palbociclib; first compound 1.265 µM
  relative viability: 0.328
Cediranib + Palbociclib; first compound 4 µM
  relative viability: 0.359
Cediranib + OSI-027; first compound 0.04 µM
  relative viability: 0.461
Cediranib + OSI-027; first compound 0.4 µM
  relative viability: 0.473
Cediranib + OSI-027; first compound 4 µM
  relative viability: 0.488
Decitabine + Palbociclib; first compound 0.04 µM
  relative viability: 0.344
Decitabine + Palbociclib; first compound 0.1265 µM
  relative viability: 0.276
Decitabine + Palbociclib; first compound 0.4 µM
  relative viability: 0.313
Decitabine + Palbociclib; first compound 1.265 µM
  relative viability: 0.283
Decitabine + Palbociclib; first compound 4 µM
  relative viability: 0.285
Decitabine + Dasatinib; first compound 0.04 µM
  relative viability: 0.496
Decitabine + Dasatinib; first compound 0.1265 µM
  relative viability: 0.442
Decitabine + Dasatinib; first compound 0.4 µM
  relative viability: 0.293
Decitabine + Dasatinib; first compound 1.265 µM
  relative viability: 0.335
Decitabine + Dasatinib; first compound 4 µM
  relative viability: 0.327
